Measurements published in PMC6956567 (Bioorganic & medicinal chemistry letters, 2014).

Columns and labels:
[1] = molecular target: human TRPV1 (Homo sapiens, UniProt Q8NER1); test: FLIPR antagonism of capsaicin; assay type: cell-based; conditions: for fold better antagonism than linear derivative 15c: Ki(CAP) versus 15c; for antagonism of capsaicin response, in words: capsaicin 100 nM; for fold more potent than the corresponding racemate: Ki(CAP), (S)-isomer versus racemate
[2] = system: CCI-induced cold allodynia; test: Bennett model; assay type: in vivo, rat
[3] = system: capsaicin-induced hypothermia; test: Inhibition of capsaicin-induced hypothermia; assay type: in vivo, mouse; conditions: 15 min before 3 mg/kg ip capsaicin, assayed 30 min after capsaicin

human TRPV1, sequence (Q8NER1 whole entry): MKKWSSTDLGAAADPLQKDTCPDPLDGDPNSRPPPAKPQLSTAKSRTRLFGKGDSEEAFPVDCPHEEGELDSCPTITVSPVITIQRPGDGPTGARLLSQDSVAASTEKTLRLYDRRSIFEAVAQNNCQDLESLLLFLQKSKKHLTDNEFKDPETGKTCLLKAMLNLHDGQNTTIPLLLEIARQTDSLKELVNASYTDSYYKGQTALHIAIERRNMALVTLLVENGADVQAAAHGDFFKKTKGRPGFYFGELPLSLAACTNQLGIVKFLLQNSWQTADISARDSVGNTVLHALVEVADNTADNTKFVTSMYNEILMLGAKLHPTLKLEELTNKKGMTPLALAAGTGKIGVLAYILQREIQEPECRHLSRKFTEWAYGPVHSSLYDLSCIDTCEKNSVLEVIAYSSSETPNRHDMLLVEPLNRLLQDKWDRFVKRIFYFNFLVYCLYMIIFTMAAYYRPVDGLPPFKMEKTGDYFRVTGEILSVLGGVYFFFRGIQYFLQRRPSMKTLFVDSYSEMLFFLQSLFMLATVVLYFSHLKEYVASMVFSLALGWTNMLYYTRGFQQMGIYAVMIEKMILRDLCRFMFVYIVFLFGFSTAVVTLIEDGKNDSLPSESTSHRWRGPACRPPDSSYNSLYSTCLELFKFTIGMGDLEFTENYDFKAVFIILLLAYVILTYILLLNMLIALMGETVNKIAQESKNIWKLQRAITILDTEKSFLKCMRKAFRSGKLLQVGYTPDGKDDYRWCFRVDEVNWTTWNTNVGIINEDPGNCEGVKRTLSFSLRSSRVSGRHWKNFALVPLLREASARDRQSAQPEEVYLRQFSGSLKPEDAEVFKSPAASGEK

Structure (SMILES): CC(C)CCCc1nc(C(F)(F)F)ccc1CNC(=O)C(C)c1ccc(NS(C)(=O)=O)c(F)c1 (stereo not drawn) [15d]
- fold better antagonism than linear derivative 15c [1]: ca. 2 fold

Structure (SMILES): CC(C)=Cc1nc(C(F)(F)F)ccc1CNC(=O)C(C)c1ccc(NS(C)(=O)=O)c(F)c1 (stereo not drawn) [16a]
- antagonism of capsaicin response, in words [1]: moderate antagonistic activity

Structure (SMILES): C[C@H](C(=O)NCc1ccc(C(F)(F)F)nc1C1=CCC(C(C)(C)C)CC1)c1ccc(NS(C)(=O)=O)c(F)c1 (stereo partly drawn) [(S)-15t]
- fold more potent than the corresponding racemate [1]: ca. 2 fold

Structure (SMILES): CCC/C=C\c1nc(C(F)(F)F)ccc1CNC(=O)C(C)c1ccc(NS(C)(=O)=O)c(F)c1 (stereo not drawn) [16c]
- fold less potent than saturated derivative 15b ([1]; Ki(CAP) versus 15b): 2 fold

Structure (SMILES): CC(C)C[C@H](CN)CC(=O)O [pregabalin, reference compound]
- anti-allodynic activity, max effect ([2]; at 100 mg/kg): 69%

Structure (SMILES): CC(C(=O)NCc1ccc(C(F)(F)F)nc1Br)c1ccc(NS(C)(=O)=O)c(F)c1 (stereo not drawn) [compound 9]
- antagonism of capsaicin response, in words [1]: weak antagonists

Structure (SMILES): CCC1CCC(c2nc(C(F)(F)F)ccc2CNC(=O)C(C)c2ccc(NS(C)(=O)=O)c(F)c2)CC1 (stereo not drawn) [15h]
- fold increase in potency compared to 15f ([1]; Ki(CAP) versus 15f): 2 fold

Structure (SMILES): CC(C(=O)NCc1ccc(C(F)(F)F)nc1CCC(C)(C)C)c1ccc(NS(C)(=O)=O)c(F)c1 (stereo not drawn) [15e]
- fold better antagonism than linear derivative 15c [1]: ca. 2 fold

Structure (SMILES): CCC1CCC(c2nc(C(F)(F)F)ccc2CNC(=O)[C@@H](C)c2ccc(NS(C)(=O)=O)c(F)c2)CC1 (stereo partly drawn) [(S)-15h]
- fold more potent than the corresponding racemate [1]: ca. 2 fold

Structure (SMILES): CC1CC=C(c2nc(C(F)(F)F)ccc2CNC(=O)[C@@H](C)c2ccc(NS(C)(=O)=O)c(F)c2)CC1 (stereo partly drawn) [(S)-15p]
- fold more potent than the corresponding racemate [1]: ca. 2 fold

Structure (SMILES): CC(C(=O)NCc1ccc(C(F)(F)F)nc1C1CCCCC1)c1ccc(NS(C)(=O)=O)c(F)c1 (stereo not drawn) [15f]
- fold better antagonism than linear derivative 15c [1]: 2.5 fold
- CAP-induced hypothermia, inhibition ([3]; 0.1 mg/kg po): 24 % inh.
- CAP-induced hypothermia, inhibition ([3]; 0.3 mg/kg po): 78 % inh.
- Bennett model, maximal possible effect ([2]; 10 mg/kg po): 60 MPE
- anti-allodynic activity, max effect ([2]; at 10 mg/kg po): 60%

Structure (SMILES): CC(C(=O)NCc1ccc(C(F)(F)F)nc1Cl)c1ccc(NS(C)(=O)=O)c(F)c1 (stereo not drawn) [compound 8]
- antagonism of capsaicin response, in words [1]: weak antagonists

Structure (SMILES): C[C@H](C(=O)NCc1ccc(C(F)(F)F)nc1C1CCC(C)(C)CC1)c1ccc(NS(C)(=O)=O)c(F)c1 [(S)-15l]
- fold more potent than the corresponding racemate [1]: ca. 2 fold

Structure (SMILES): CC(C(=O)NCc1ccc(C(F)(F)F)nc1C1CC2CCC1C2)c1ccc(NS(C)(=O)=O)c(F)c1 (stereo not drawn) [15n]
- fold less potent than monocycle 15f ([1]; Ki(CAP) versus 15f): 2.5 fold

Structure (SMILES): C[C@H](C(=O)NCc1ccc(C(F)(F)F)nc1C1=CCC(C)(C)CC1)c1ccc(NS(C)(=O)=O)c(F)c1 [(S)-15u]
- fold more potent than the corresponding racemate [1]: ca. 2 fold

Structure (SMILES): C[C@H](C(=O)NCc1ccc(C(F)(F)F)nc1C1CCCCC1)c1ccc(NS(C)(=O)=O)c(F)c1 [(S)-15f]
- fold more potent than the corresponding racemate [1]: 2 fold

Structure (SMILES): C[C@H](C(=O)NCc1ccc(C(F)(F)F)nc1C1CC2CCC1C2)c1ccc(NS(C)(=O)=O)c(F)c1 (stereo partly drawn) [(S)-15n]
- fold more potent than the corresponding racemate [1]: ca. 2 fold
